EPA's ToxValDB 9.5 (doi:10.2903/j.efsa.2010.1445)

Experiments:
Daphnia magna = conditions: chronic/long-term; duration: 21 days
Oryctolagus sp. = conditions: developmental; development
Anatidae = conditions: for LD50: oral, mortality
[1] = chronic/long-term; development
Typhlodromus pyri = conditions: not reported; mortality
Rattus norvegicus = conditions: acute; oral; mortality
Coturnix coturnix = conditions: for LD50: acute, oral, mortality
Tagia sp. = conditions: acute; mortality
Oncorhynchus mykiss = conditions: acute; duration: 96 hours; mortality
Apis mellifera = conditions: acute; duration: 48 hours; dermal; mortality
Lepomis macrochirus = conditions: acute; duration: 96 hours; mortality
Pimephales promelas = conditions: chronic/long-term; duration: 33 days

For `N#CCNC(=O)c1cnccc1C(F)(F)F` [Flonicamid], the NOEC (Daphnia magna) was 3.1 mg/L, the LC50 (Bibionidae; acute, duration: 48 hours, mortality) was > 200 µg/mL and the NOEC (Bibionidae; chronic/long-term, duration: 28 days) was 25 mg/L. The NOAEL (Oryctolagus sp.) was 2.5 mg/kg-day, the LD50 (Anatidae; acute, unspecified, F) was 1590 mg/kg and the LD50 (Anatidae; acute, unspecified, M) was 2620 mg/kg. For the same molecule, the NOEL (Anatidae; reproductive) was 59 mg/kg-day, the LD50 (Anatidae; short-term, feed) was > 302 mg/kg-day and the NOEL [1] was 25 mg/kg-day. The LEL (Typhlodromus pyri) was 80 g/ha, the LD50 (Rattus norvegicus) was 884 mg/kg and the LD50 (Coturnix coturnix; M/F) was > 2000 mg/kg. The LD50 (Coturnix coturnix; diet) was > 411 mg/kg-day, the NOEL (Coturnix coturnix; reproduction developmental) was 90 mg/kg-day and the LC50 (Tagia sp.) was > 1000 mg/kg. The LC50 (Oncorhynchus mykiss) was > 100 µg/mL, the LD50 (Apis mellifera) was > 51.1 µg/piece and the LC50 (Lepomis macrochirus) was > 100 µg/mL. It also gave an NOEC (Pimephales promelas) of 10 mg/L.
